Patent publication US9267949B2, “Alkylamino BODIPY dyes as selective fluorescent probes for proteins and mouse embryonic stem cells” (National University of Singapore, priority 2011, dated 2016)

What was measured:
[1] = Quantum yield measurements; assay type: physicochemical; conditions: referred to Rhodamine B in EtOH, excitation 510 nm, emission integrated 540-800 nm
How it was run: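 Integrated fluorescence emission from 540 to 800 nm was referenced to Rhodamine B in EtOH (Φ=0.70) after excitation at 510 nm. Quantum yield was calculated with correction for solvent refractive index and absorbance at the excitation wavelength.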

human IgG [2] = assay: Fluorescence-based fractional saturation curve; conditions: 10 μM dye, 20 mM HEPES pH 7.4, exc 530 nm, em 590 nm; read-out: dissociation constant Kd (fluorescence binding saturation curve)
Experimental: Ig Orange (10 μM) was incubated with different concentrations of human IgG in 20 mM HEPES buffer (pH 7.4) and the fluorescence intensities were recorded on a SpectraMax M2 plate reader (excitation: 530 nm; emission: 590 nm) (FIG. 9).

human IgG [3] = assay: Screening the BDM library: fluorescence response against proteins and peptides; assay type: binding; conditions: 10 μM dye
Experimental: Fluorescence intensities were measured using a Spectra Max Gemini XSF plate reader in a 384-well plate. BDM compounds were dissolved to a final concentration of 10 μM (20 mM HEPES buffer, pH 7.4, containing 1% DMSO) and incubated with different proteins and peptides at different serial concentrations in 20 mM HEPES buffer (pH 7.4) (FIG. 1a). The excitation wavelength was set at 510 nm, and the emission spectra were recorded from 560 to 700 nm. Fluorescence fold increase ratios were determined by referring the maximum fluorescence intensity emission of BDM compounds in the presence of the screened proteins and peptides to the maximum fluorescence intensity emission of BDM compounds in 20 mM HEPES buffer (pH 7.4) (FIG. 1b).

[4] = system: Fab and Fc fragments of human IgG1; assay: Fluorescence increase with Fab and Fc fragments; assay type: binding; conditions: Fab vs Fc fragments of human monoclonal IgG1
Experimental: FIGS. 6a and 6b show binding sensorgrams of Ig Orange (0.07, 0.21, 0.62, 1.86, 5.57 and 16.70 μM) upon injection across an immobilized immunoglobulin chip, which were fit using the equilibrium responses of a steady-state model. […] Values are represented as means (n=3) and error bars as standard deviations.
In order to identify the region of human IgG to which Ig Orange binds, we evaluated the fluorescence response of Ig Orange in the presence of human polyclonal IgG and monoclonal IgG1, the most abundant subtype. […] To confirm this observation and determine the stoichiometry of the complex between Ig Orange and the full immunoglobulin, we analyzed the interaction by means of a Job plot. A maximum fluorescence increase was detected for a 2:1 Ig Orange:immunoglobulin ratio, which supported our observation that the preferred binding region of Ig Orange corresponded to the Fab fragments of the immunoglobulin (FIG. 7b). […] With this first adaptation of the BODIPY scaffold to a solid-phase approach we accelerated the development of alkylamino BODIPY-based fluorescent probes, being Ig Orange the first immunoglobulin fluorescent sensor.

human IgG [5] = assay: Structure-fluorescence relationships: Ig Orange vs BD-69 with human IgG; assay type: binding; conditions: 10 μM each, 20 mM HEPES pH 7.4
Experimental: Ig Orange (BDM-69) (10 μM) and BD-69 (10 μM) were incubated with different concentrations of human IgG in 20 mM HEPES buffer (pH 7.4) and the fluorescence intensities were recorded on a SpectraMax M2 plate reader (excitation: 530 nm; emission: 590 nm), as shown in FIG. 7a. Values are represented as means (n=3) of the fluorescence fold increase after incubation with the protein.

human IgG [6] = assay: Surface plasmon resonance on immobilized immunoglobulin chip; assay type: binding; conditions: 25° C., read-out: KD (SPR, steady-state model)
Description: The following experiments were aimed at determining the dissociation constant of the interaction between Ig Orange and human IgG. Surface Plasmon Resonance (SPR) has been extensively used to measure the binding constants between small molecules and biopolymers, 25 and we modified human IgG with biotin so that it could be immobilized on a neutravidin-coated sensor chip. Upon immobilization of the biotinylated protein on a neutravidin-coated sensor chip CM7, we performed Ig Orange titrations in duplicate with increasing concentrations of the small molecule.
Human IgG (5.0 mg, 0.033 μmol) and biotin-OSu (0.11 mg, 0.33 μmol) were dissolved in 0.1 M NaHCO3 (pH 8.5) and shaken for 1 h at 25° C. […] The fluorescence response of Ig Orange to IgG and biotinylated IgG was compared (FIG. 5). The concentration of biotinylated IgG before fluorescence and SPR experiments was determined by Bradford assay. […] Job Plot Analysis: Ig Orange (final concentrations: 0, 1.6, 3.2, 4.8, 6.4, 8.0, 9.6, 11.2, 12.8, 14.4, 16 μM) and human IgG (final concentrations: 16, 14.4, 12.8, 11.2, 9.6, 8.0, 6.4, 4.8, 3.2, 1.6, 0 μM) were incubated in PBS buffer (pH 7.3) containing 1% DMSO, and the fluorescence intensities of the different solutions were recorded on a SpectraMax M2 plate reader (excitation: 530 nm; emission: 590 nm). […]

[7] = Spectroscopic properties of the BDM library (absorbance and emission maxima); assay type: physicochemical
[8] = in EtOH, excitation at 510 nm; cited from earlier work

Row | Compound | φ (quantum yield) [1] | λmax (ABS) [7] [nm] | λmax (EM) [7] [nm] | further results
1 | CC1=CC(/C=C/c2ccc(/C=C/c3ccccc3)cc2)=[N+]2C1=C(CCN)c1cccn1[B-]2(F)F [BDM-69] | 0.32 | 574 | 594 | Kd (human IgG [2]): 14.1 ± 0.9 µM; turn-on fluorescence increase in the presence of human IgG (human IgG [3]; 20 mM HEPES buffer pH 7.4): 75 fold; selectivity profile against proteins and peptides (human IgG [3]; 20 mM HEPES pH 7.4, exc 510 nm): best selectivity profile among the whole library; preferred binding region of the immunoglobulin [4]: preferred binding to the Fab region; higher fluorescence increase of Ig Orange relative to BD-69 vs. human IgG (human IgG [5]): 15 fold; Kd (human IgG [6]): 71.7 ± 0.6 µM
2 | COc1ccc(/C=C/C2=[N+]3C(=C(CCN)c4cccn4[B-]3(F)F)C(C)=C2)c(Cl)c1OC [BDM-372] | 0.55 | 561 | 578 | 
3 | CC1=CC(/C=C/c2ccc(N(C)C)c3ccccc23)=[N+]2C1=C(CCN)c1cccn1[B-]2(F)F [BDM-377] | 0.04 | 586 |  | 
4 | CC1=CC(/C=C/c2ccc(OCc3ccc(F)cc3)cc2)=[N+]2C1=C(CCN)c1cccn1[B-]2(F)F [BDM-378] | 0.41 | 563 | 585 | 
5 | CC1=CC(/C=C/c2ccccc2I)=[N+]2C1=C(CCN)c1cccn1[B-]2(F)F [BDM-384] | 0.32 | 551 | 565 | 
6 | CC1=CC(/C=C/c2cccc(C=O)c2)=[N+]2C1=C(CCN)c1cccn1[B-]2(F)F [BDM-391] | 0.31 | 554 | 563 | 
7 | CCOc1cc(/C=C/C2=[N+]3C(=C(CCN)c4cccn4[B-]3(F)F)C(C)=C2)ccc1O [BDM-397] | 0.10 | 570 | 614 | 
8 | COC(=O)c1cc(OC)cc(OC)c1/C=C/C1=[N+]2C(=C(CCN)c3cccn3[B-]2(F)F)C(C)=C1 [BDM-401] | 0.85 | 565 | 590 | 
9 | CC1=CC(/C=C/c2ccc(Br)cc2)=[N+]2C1=C(CCN)c1cccn1[B-]2(F)F [BDM-409] | 0.12 | 558 | 570 | 
10 | CC1=CC(/C=C/c2ccc(-c3ccccc3)c(F)c2)=[N+]2C1=C(CCN)c1cccn1[B-]2(F)F [BDM-425] | 0.12 | 562 | 576 | 
11 | CCOc1ccc(/C=C/C2=[N+]3C(=C(CCN)c4cccn4[B-]3(F)F)C(C)=C2)cc1 [BDM-429] | 0.23 | 564 | 586 | 
12 | CC1=CC(/C=C/c2c(C)nn(C)c2C)=[N+]2C1=C(CCN)c1cccn1[B-]2(F)F [BDM-430] | 0.99 | 565 | 592 | 
13 | CC1=CC(/C=C/c2ccc(Oc3ccc(C(C)(C)C)cc3)cc2)=[N+]2C1=C(CCN)c1cccn1[B-]2(F)F [BDM-435] | 0.39 | 555 | 565 | 
14 | CC1=CC(/C=C/c2ccc(Cl)c(F)c2)=[N+]2C1=C(CCN)c1cccn1[B-]2(F)F [BDM-437] | 0.21 | 555 | 566 | 
15 | CC1=CC(/C=C/c2cc3ccccc3c3ccccc23)=[N+]2C1=C(CCN)c1cccn1[B-]2(F)F [BDM-440] | 0.37 | 563 | 589 | 
16 | CCN(CC)c1ccc2c(-c3ccccc3C(=O)O)c3ccc(=[N+](CC)CC)cc-3oc2c1.[Cl-] [Rhodamine B] |  |  |  | Quantum yield of standard (ΦRho-B) [8]: 0.70
